{"source": "ChEMBL document CHEMBL1201862", "about": "“PubChem BioAssay data set” (2004)", "experiment_in_all_cases": "NCI tumour cell line growth inhibition, 48 h", "key": {"[1]": {"test_system": "T47D"}, "[2]": {"test_system": "OVCAR-5"}, "[3]": {"test_system": "SK-MEL-28"}, "[4]": {"test_system": "NCI-H226"}, "[5]": {"test_system": "SK-OV-3"}, "[6]": {"test_system": "SF-268"}, "[7]": {"test_system": "SNB-75"}, "[8]": {"test_system": "MCF7"}, "[9]": {"test_system": "BT-549"}, "[10]": {"test_system": "MDA-MB-231"}, "[11]": {"test_system": "HCT-15"}, "[12]": {"test_system": "UO-31"}, "[13]": {"test_system": "SNB-19"}, "[14]": {"test_system": "CAKI-1"}, "[15]": {"test_system": "IGROV-1"}, "[16]": {"test_system": "OVCAR-4"}, "[17]": {"test_system": "SK-MEL-5"}, "[18]": {"test_system": "LOX IMVI"}, "[19]": {"test_system": "SW-620"}, "[20]": {"test_system": "COLO 205"}, "[21]": {"test_system": "TK-10"}, "[22]": {"test_system": "A549"}, "[23]": {"test_system": "NCI-H522"}, "[24]": {"test_system": "OVCAR-3"}, "[25]": {"test_system": "ACHN"}, "[26]": {"test_system": "SF-539"}, "[27]": {"test_system": "RPMI-8226"}, "[28]": {"test_system": "SK-MEL-2"}, "[29]": {"test_system": "KM12"}, "[30]": {"test_system": "UACC-62"}, "[31]": {"test_system": "HCC 2998"}, "[32]": {"test_system": "Malme-3M"}, "[33]": {"test_system": "SN12C"}, "[34]": {"test_system": "MOLT-4"}, "[35]": {"test_system": "A498"}, "[36]": {"test_system": "EKVX"}, "[37]": {"test_system": "OVCAR-8"}, "[38]": {"test_system": "HT-29"}, "[39]": {"test_system": "Hs-578T"}, "[40]": {"test_system": "UACC-257"}, "[41]": {"test_system": "MDA-MB-435"}, "[42]": {"test_system": "MDA-N"}, "[43]": {"test_system": "NCI-H23"}, "[44]": {"test_system": "HOP-62"}, "[45]": {"test_system": "K562"}, "[46]": {"test_system": "U-251"}, "[47]": {"test_system": "RXF 393"}, "[48]": {"test_system": "M14"}, "[49]": {"test_system": "HOP-92"}, "[50]": {"test_system": "PC-3"}, "[51]": {"test_system": "NCI-H460"}, "[52]": {"test_system": "786-0"}, "[53]": {"test_system": "DU-145"}, "[54]": {"test_system": "SF-295"}, "[55]": {"test_system": "HCT-116"}, "[56]": {"test_system": "NCI/ADR-RES"}}, "note": "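These data come from cells grown in 96-well plates and exposed to compound for 48 hours at five concentrations. GI50 is the concentration that inhibits growth by half.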 Activity calls are given as the source filed them. Rule as the data show it: active = GI50 up to about 1.1 µM and inactive = higher.", "data": [{"smiles": "COc1ccc(CC(COS(=O)(=O)c2ccc(C)cc2)NS(=O)(=O)c2ccc(C)cc2)cc1", "note": "(stereo unspecified)", "values": [{"measurement": "GI50", "setting": "[1]", "result": "5.45 µM (inactive)"}, {"measurement": "GI50", "setting": "[2]", "result": "17.5 µM (inactive)"}, {"measurement": "GI50", "setting": "[3]", "result": "15.5 µM (inactive)"}, {"measurement": "GI50", "setting": "[4]", "result": "7.4 µM (inactive)"}, {"measurement": "GI50", "setting": "[5]", "result": "15.2 µM (inactive)"}, {"measurement": "GI50", "setting": "[6]", "result": "12.2 µM (inactive)"}, {"measurement": "GI50", "setting": "[7]", "result": "8.91 µM (inactive)"}, {"measurement": "GI50", "setting": "[8]", "result": "8.24 µM (inactive)"}, {"measurement": "GI50", "setting": "[9]", "result": "5.71 µM (inactive)"}, {"measurement": "GI50", "setting": "[10]", "result": "> 53.5 µM (inactive)"}, {"measurement": "GI50", "setting": "[11]", "result": 14.2, "unit": "µM"}, {"measurement": "GI50", "setting": "[12]", "result": "12.4 µM (inactive)"}, {"measurement": "GI50", "setting": "[13]", "result": "12.6 µM (inactive)"}, {"measurement": "GI50", "setting": "[14]", "result": "17.4 µM (inactive)"}, {"measurement": "GI50", "setting": "[15]", "result": "7.87 µM (inactive)"}, {"measurement": "GI50", "setting": "[16]", "result": "20.7 µM (inactive)"}, {"measurement": "GI50", "setting": "[17]", "result": "9.02 µM (inactive)"}, {"measurement": "GI50", "setting": "[18]", "result": "19.5 µM (inactive)"}, {"measurement": "GI50", "setting": "[19]", "result": "10.9 µM (inactive)"}, {"measurement": "GI50", "setting": "[20]", "result": "11.7 µM (inactive)"}, {"measurement": "GI50", "setting": "[21]", "result": "17.4 µM (inactive)"}, {"measurement": "GI50", "setting": "[22]", "result": "12.1 µM (inactive)"}, {"measurement": "GI50", "setting": "[23]", "result": "7.01 µM (inactive)"}, {"measurement": "GI50", "setting": "[24]", "result": "9.55 µM (inactive)"}, {"measurement": "GI50", "setting": "[25]", "result": "12.3 µM (inactive)"}, {"measurement": "GI50", "setting": "[26]", "result": "17.1 µM (inactive)"}, {"measurement": "GI50", "setting": "[27]", "result": "15.2 µM (inactive)"}, {"measurement": "GI50", "setting": "[28]", "result": "15.1 µM (inactive)"}, {"measurement": "GI50", "setting": "[29]", "result": "16.9 µM (inactive)"}, {"measurement": "GI50", "setting": "[30]", "result": "6.98 µM (inactive)"}, {"measurement": "GI50", "setting": "[31]", "result": "11.9 µM (inactive)"}, {"measurement": "GI50", "setting": "[32]", "result": "10.7 µM (inactive)"}, {"measurement": "GI50", "setting": "[33]", "result": "15.4 µM (inactive)"}, {"measurement": "GI50", "setting": "[34]", "result": "> 100 µM (inactive)"}, {"measurement": "GI50", "setting": "[35]", "result": "12.8 µM (inactive)"}, {"measurement": "GI50", "setting": "[36]", "result": "14.6 µM (inactive)"}, {"measurement": "GI50", "setting": "[37]", "result": "15.3 µM (inactive)"}, {"measurement": "GI50", "setting": "[38]", "result": "10.2 µM (inactive)"}, {"measurement": "GI50", "setting": "[39]", "result": "15.6 µM (inactive)"}, {"measurement": "GI50", "setting": "[40]", "result": "15.8 µM (inactive)"}, {"measurement": "GI50", "setting": "[41]", "result": "13.9 µM (inactive)"}, {"measurement": "GI50", "setting": "[42]", "result": "19.6 µM (inactive)"}, {"measurement": "GI50", "setting": "[43]", "result": "13.7 µM (inactive)"}, {"measurement": "GI50", "setting": "[44]", "result": "16.7 µM (inactive)"}, {"measurement": "GI50", "setting": "[45]", "result": "43.2 µM (inactive)"}, {"measurement": "GI50", "setting": "[46]", "result": "11.8 µM (inactive)"}, {"measurement": "GI50", "setting": "[47]", "result": "3.27 µM (inactive)"}, {"measurement": "GI50", "setting": "[48]", "result": "8.34 µM (inactive)"}, {"measurement": "GI50", "setting": "[49]", "result": "6.56 µM (inactive)"}, {"measurement": "GI50", "setting": "[50]", "result": "14.8 µM (inactive)"}, {"measurement": "GI50", "setting": "[51]", "result": "11.5 µM (inactive)"}, {"measurement": "GI50", "setting": "[52]", "result": "16 µM (inactive)"}, {"measurement": "GI50", "setting": "[53]", "result": "10.8 µM (inactive)"}, {"measurement": "GI50", "setting": "[54]", "result": "13.7 µM (inactive)"}, {"measurement": "GI50", "setting": "[55]", "result": "12.8 µM (inactive)"}, {"measurement": "GI50", "setting": "[56]", "result": "11 µM (inactive)"}]}]}
